Test results as given in paper PMC7221806, “PF74 and Its Novel Derivatives Stabilize Hexameric Lattice of HIV-1 Mature-Like Particles” (Molecules, 2020).

Assays:
HIV-1 CANC [1] = molecular target: T1, HIV-1 CANC (Human immunodeficiency virus type 1 group M subtype B, UniProt P12493); experiment: Disassembly inhibitor test for HIV (DITH), stability of preassembled CANC particles, with TEM; settings: 10 µM; for TEM of CANC particles after incubation in disassembly buffer: after DITH, negative staining; for relative stability of HIV-1 CANC assemblies in disassembly buffer: CANC without inhibitor in disassembly buffer = 0%
HIV-1 [2] = experiment: microbe, parasite or virus in culture; type: cell-based; settings: for IC50: Human immunodeficiency virus 1, HEK293, 48 h
[3] = Cytotoxicity, resazurin assay; type: cell-based; settings: human, HEK 293T cells, 24 h treatment
[4] = Cytotoxic effect on OMK cells; type: cell-based; settings: owl monkey, OMK (owl monkey kidney) cells
HIV-1 CANC [5] = molecular target: T1, HIV-1 CANC; experiment: Fast Assembly Inhibitor Test for HIV (FAITH), in vitro assembly of mature-like particles, with TEM; settings: 10 µM; for TEM phenotype of CANC assembled in presence of inhibitor: after FAITH, negative staining
HIV-1 [6] = type: cell-based; settings: OMK cells, 10 µM, 2.5 µM CsA

Compound | stabilization of HIV-1 CANC compared with PF74 (in words) (HIV-1 CANC [1]) | TEM of CANC particles after incubation in disassembly buffer (HIV-1 CANC [1]) | IC50 (HIV-1 [2]) | CC50 at 24 h [3] | CC50 [4] | relative stability of HIV-1 CANC assemblies in disassembly buffer (HIV-1 CANC [1]) | inhibitory activity against HIV-1 compared with PF74 (in words) (HIV-1 [2]) | TEM phenotype of CANC assembled in presence of inhibitor (HIV-1 CANC [5]) | effect on HIV-1 infectivity / uncoating in CsA-washout assay (in words) (HIV-1 [6]) | effect on assembly of mature-like CANC particles (in words) (HIV-1 CANC [5]; CANC without inhibitor = 100%)
CN(C(=O)[C@H](Cc1ccccc1)NC(=O)[C@@H]1Cc2ccccc2C(=O)N1C)c1ccccc1 [D8S, (S)-2-methyl-N-((S)-1-(methyl(phenyl)amino)-1-oxo-3-phenylpropan-2-yl)-1-oxo--1,2,3,4-tetrahydroisoquinoline-3-carboxamide] | lower effect on HIV-1 CANC stability than PF74 | mainly disassembled material | > 20 µM | > 40 µM | – | – | – | – | – | –
CC(C)Cc1ccc([C@@H](C)C(=O)N[C@@H](Cc2ccccc2)C(=O)N(C)c2ccccc2)cc1 [D4R, (S)-2-((R)-2-(4-isobutylphenyl)propanamido)-N-methyl-N,3-diphenylpropanamide] | lower effect on HIV-1 CANC stability than PF74 | mainly disassembled material | > 20 µM | 27 ± 3.5 µM | – | – | – | – | – | –
COc1ccc2c(c1)c(CC(=O)N[C@@H](Cc1ccccc1)C(=O)N(C)c1ccccc1)c(C)n2C(=O)c1ccc(Cl)cc1 [D2, (S)-2-(2-(1-(4-chlorobenzoyl)-5-methoxy-2-methyl-1H-indol-3-yl)acetamido)-N-methyl--N,3-diphenylpropanamide] | lower effect on HIV-1 CANC stability than PF74 | mainly disassembled material | 8 ± 1.2 µM | > 40 µM | – | – | – | – | – | –
CN(C(=O)[C@H](Cc1ccccc1)NC(=O)NCc1nc2ccccc2[nH]1)c1ccccc1 [D10, (S)-2-(3-((1H-benzo[d]imidazol-2-yl)methyl)ureido)-N-methyl-N,3-diphenylpropanamide] | more potent stabilizers than PF74 | intact CANC particles | 0.5 ± 0.3 µM | 10 ± 1.6 µM | < 3 µM | 90% | better inhibitory activity against HIV-1 than PF74 | predominant formation of cone-like and shorter tubular structures | – | –
Cc1[nH]c2ccccc2c1CC(=O)N[C@@H](Cc1ccccc1)C(=O)N(C)c1ccccc1 [PF74] | – | intact CANC particles | 1.75 ± 0.5 µM | > 40 µM | – | about 60% | – | predominant formation of cone-like and shorter tubular structures | strongest impact on HIV-1 infectivity in OMK cells at the early stage of HIV-1 infection | no effect
CN(C(=O)[C@H](Cc1ccccc1)NC(=O)Cc1n[nH]c2ccccc12)c1ccccc1 [D9, (S)-2-(2-(1H-indazol-3-yl)acetamido)-N-methyl-N,3-diphenylpropanamide] | more potent stabilizers than PF74 | intact CANC particles | 3.4 ± 0.9 µM | > 40 µM | – | 80% | only slightly weaker than that of PF74 | – | highly active during the first two hours post infection, then its activity dropped | –
CN(C(=O)[C@H](Cc1ccccc1)NC(=O)[C@@H]1Cc2ccccc2C(=O)N1)c1ccccc1 [D7, (S)-N-((S)-1-(methyl(phenyl)amino)-1-oxo-3-phenylpropan-2-yl)-1-oxo-1,2,3,4--tetrahydroisoquinoline-3-carboxamide] | lower effect on HIV-1 CANC stability than PF74 | mainly disassembled material | > 20 µM | > 40 µM | – | – | – | long, tubular structures | – | –
CN(C(=O)[C@H](Cc1ccccc1)NC(=O)[C@H]1Cc2ccccc2C(=O)N1C)c1ccccc1 [D8R, (R)-2-methyl-N-((S)-1-(methyl(phenyl)amino)-1-oxo-3-phenylpropan-2-yl)-1-oxo--1,2,3,4-tetrahydroisoquinoline-3-carboxamide] | lower effect on HIV-1 CANC stability than PF74 | mainly disassembled material | 4.5 ± 1.5 µM | > 40 µM | – | – | only slightly weaker than that of PF74 | – | major effect | –
CN(C(=O)[C@H](Cc1ccccc1)NC(=O)Cc1c[nH]c2ccccc12)c1ccccc1 [D1, (S)-2-(2-(1H-indol-3-yl)acetamido)-N-methyl-N,3-diphenylpropanamide] | only slightly less active in stabilization than PF74 | – | 3.5 ± 0.6 µM | > 40 µM | – | – | only slightly weaker than that of PF74 | – | strongest impact on HIV-1 infectivity in OMK cells at the early stage of HIV-1 infection | –
